Assay: mn = molality of the nth substance listed, in mol/kg
Details: for electrical conductivity: 100 kPa, Liquid, Frequency=0.002 MHz, Alternating current cell with electrodes; for surface tension liquid-gas: Ring tensiometer

CCCCCCCCCCCCCCCC[n+]1ccn(C)c1.[Cl-] [1-hexadecyl-3-methylimidazolium chloride] + O
Details | electrical conductivity, 303.15 K [S/m] | electrical conductivity, 313.15 K [S/m] | electrical conductivity, 323.15 K [S/m] | surface tension liquid-gas, 313.15 K [mN/m]
m1 = 1.3e-05 | – | – | – | 57.9
m1 = 4.4e-05 | – | – | – | 56.4
m1 = 0.00011 | 0.00121 | 0.00152 | 0.00171 | –
m1 = 0.000146 | – | – | – | 53.2
m1 = 0.00022 | 0.00234 | 0.00295 | 0.00334 | –
m1 = 0.000247 | – | – | – | 50.1
m1 = 0.00033 | 0.00341 | 0.00432 | 0.00491 | –
m1 = 0.00043 | 0.00444 | 0.0056 | 0.0064 | –
m1 = 0.000435 | – | – | – | 46.4
m1 = 0.00052 | 0.00541 | 0.00686 | 0.00791 | –
m1 = 0.00062 | 0.00636 | 0.00803 | 0.00929 | –
m1 = 0.00071 | 0.00726 | 0.00918 | 0.0106 | –
m1 = 0.000734 | – | – | – | 39.2
m1 = 0.00079 | 0.00809 | 0.0102 | 0.0119 | –
m1 = 0.00088 | 0.0088 | 0.0112 | 0.0133 | –
m1 = 0.00096 | 0.00933 | 0.0119 | 0.0143 | –
m1 = 0.00104 | 0.00977 | 0.0125 | 0.0153 | –
m1 = 0.00112 | 0.0102 | 0.0131 | 0.0161 | –
m1 = 0.00119 | 0.0106 | 0.0136 | 0.0168 | –
m1 = 0.00126 | 0.0109 | 0.0141 | 0.0175 | –
m1 = 0.00127 | – | – | – | 38.8
m1 = 0.00133 | 0.0112 | 0.0145 | 0.0181 | –
m1 = 0.00139 | 0.0115 | 0.0149 | 0.0186 | –
m1 = 0.00146 | 0.0118 | 0.0154 | 0.0192 | –
m1 = 0.00153 | 0.0121 | 0.0157 | 0.0197 | –
m1 = 0.002558 | – | – | – | 38.8
m1 = 0.00525 | – | – | – | 38.1

CCCCCCCCCCCC[N+](C)(C)C.[Br-] [dodecyltrimethylammonium bromide] + O
Details | electrical conductivity, 303.15 K [S/m] | electrical conductivity, 313.15 K [S/m] | electrical conductivity, 323.15 K [S/m] | surface tension liquid-gas, 313.15 K [mN/m]
m1 = 6e-06 | – | – | – | 65.2
m1 = 2.5e-05 | – | – | – | 63.6
m1 = 5.6e-05 | – | – | – | 62.5
m1 = 0.000135 | – | – | – | 61.3
m1 = 0.000263 | – | – | – | 58.3
m1 = 0.000739 | – | – | – | 54.7
m1 = 0.001308 | – | – | – | 51.3
m1 = 0.00178 | 0.0194 | 0.0234 | 0.0282 | –
m1 = 0.00353 | 0.0374 | 0.0467 | 0.0547 | –
m1 = 0.004064 | – | – | – | 46
m1 = 0.00524 | 0.0553 | 0.0668 | 0.0802 | –
m1 = 0.006048 | – | – | – | 43.3
m1 = 0.00692 | 0.0727 | 0.0871 | 0.105 | –
m1 = 0.008433 | – | – | – | 39.5
m1 = 0.00857 | 0.0893 | 0.107 | 0.128 | –
m1 = 0.01019 | 0.106 | 0.126 | 0.152 | –
m1 = 0.01178 | 0.121 | 0.145 | 0.174 | –
m1 = 0.01333 | 0.136 | 0.163 | 0.196 | –
m1 = 0.01486 | 0.149 | 0.18 | 0.216 | –
m1 = 0.01636 | 0.157 | 0.193 | 0.234 | –
m1 = 0.01784 | 0.162 | 0.201 | – | –
m1 = 0.01789 | – | – | 0.247 | –
m1 = 0.01929 | 0.166 | 0.208 | 0.258 | –
m1 = 0.01941 | – | – | – | 36.2
m1 = 0.02071 | 0.17 | 0.213 | 0.265 | –
m1 = 0.02211 | 0.174 | 0.219 | 0.272 | –
m1 = 0.02348 | 0.178 | 0.224 | 0.279 | –
m1 = 0.02483 | 0.181 | 0.229 | 0.285 | –
m1 = 0.02615 | 0.185 | 0.234 | 0.292 | –
m1 = 0.02746 | 0.189 | 0.238 | 0.297 | –
m1 = 0.02874 | 0.192 | 0.243 | 0.304 | –
m1 = 0.03 | 0.195 | 0.247 | 0.31 | –
m1 = 0.0309 | – | – | – | 37.9
m1 = 0.0456 | – | – | – | 38.3
m1 = 0.07211 | – | – | – | 38.8
m1 = 0.1062 | – | – | – | 38.9

Reference: the NIST ThermoML archive (doi:10.1021/acs.jced.8b00372)
